How the values were obtained:
[1] = target: human activated kallikrein enzyme (Homo sapiens, UniProt P03952); experiment: Inhibition of activated plasma kallikrein, fluorogenic peptide substrate (PFR-AMC) assay, 500 pM enzyme format; type: biochemical; details: 500 pM activated kallikrein, 300 uM PFR-AMC, 30 min preincubation, 10 min reaction, room temperature; read-out: Primary Dose Response Assay: Average EC50
Method: Compounds were evaluated for inhibition of the human activated kallikrein enzyme in two formats of an assay employing a fluorogenic peptide substrate. In one assay format, the concentrations of reagents were as follows: 20 mM Tris pH 7.5, 1 mM EDTA, 150 mM sodium chloride, 0.1% PEG-400, 0.1% Triton X-100, 500 pM activated kallikrein enzyme, 300 uM Pro-Phe-Arg-7-amido-4-methylcoumarin (PFR-AMC) substrate. Prior to reaction initiation with substrate, enzyme and inhibitors were preincubated for 30 min at room temperature. After initiation with substrate, reactions were incubated for 10 min at room temperature and fluorescence emission at 460 nm from 380 nm excitation measured with a microplate reader. In another assay format, the concentrations of reagents were as follows: 20 mM Tris pH 7.5, 1 mM EDTA, 150 mM sodium chloride, 0.1% PEG-400, 0.1% Triton X-100, 5 pM activated kallikrein enzyme, 300 uM PFR-AMC substrate. Prior to reaction initiation with substrate, enzyme and inhibitors were preincubated for 30 min at room temperature. After initiation with substrate, reactions were incubated for 18 hr at room temperature and fluorescence emission at 460 nm from 380 nm excitation measured with a microplate reader.
Table 6 provides the results of the assay in the format with 500 pM activated kallikrein assay.

plasma kallikrein = target: T1, plasma kallikrein (Homo sapiens, UniProt P03952); experiment: Neat human plasma assay: contact pathway-activated (FXIIa) plasma, PFR-AMC substrate; type: biochemical; details: citrated human plasma (78% final), 10 nM human FXIIa, 100 μM PFR-AMC, room temperature
T1 construct: from tissue; host or cells: sodium citrate collected human plasma (78% final)
T1 sequence (P03952 391-638 limits assumed): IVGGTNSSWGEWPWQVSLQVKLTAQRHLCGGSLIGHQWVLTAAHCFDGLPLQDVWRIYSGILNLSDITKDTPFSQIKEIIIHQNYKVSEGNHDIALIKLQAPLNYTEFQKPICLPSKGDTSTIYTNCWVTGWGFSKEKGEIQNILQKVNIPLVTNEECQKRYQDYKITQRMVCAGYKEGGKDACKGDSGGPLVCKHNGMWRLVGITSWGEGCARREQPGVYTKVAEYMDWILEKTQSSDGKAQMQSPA
T1 sequence (P03952 20-390 partner limits assumed): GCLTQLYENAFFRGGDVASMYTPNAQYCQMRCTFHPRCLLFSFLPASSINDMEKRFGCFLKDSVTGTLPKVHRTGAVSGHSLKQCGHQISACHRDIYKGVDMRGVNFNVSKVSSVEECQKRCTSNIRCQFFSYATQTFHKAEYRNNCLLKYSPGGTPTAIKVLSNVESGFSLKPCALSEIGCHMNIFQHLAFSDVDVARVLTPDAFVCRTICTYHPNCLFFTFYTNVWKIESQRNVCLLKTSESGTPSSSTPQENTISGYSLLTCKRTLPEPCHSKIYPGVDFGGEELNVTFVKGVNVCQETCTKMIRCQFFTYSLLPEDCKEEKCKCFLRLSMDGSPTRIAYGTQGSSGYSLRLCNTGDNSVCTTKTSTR
Method: To analyze inhibition of plasma kallikrein in an ex vivo setting, the potency of compounds was measure in contact pathway-activated plasma assays. In a fluorogenic peptide substrate assay, test compounds dissolved in DMSO were added to sodium citrate collected human or rat plasma in a 96-well microplate. Alternatively, citrated plasma was collected from rats administered the compounds orally or by IV. 10 nM of human FXIIa (Enzyme Research Laboratories) diluted in pKal buffer (20 mM Tris-HCl, pH 7.5, 150 mM NaCl, 1 mM EDTA, 0.1% PEG-8000, and 0.1% Triton X-100) was added to the plasma, followed by the 100 μM of the profluorescent, synthetic plasma kallikrein substrate PFR-AMC (also diluted in pKal buffer). Final plasma concentration in the reaction was 78%. Fluorescence was immediately monitored by excitation/emission wavelengths of 360 nm/480 nm respectively over a period of 5 minutes in a microplate reader. The resulting linear increase in fluorescence emission (reflecting pKal proteolysis of PFR-AMC substrate) was fit to extract a proteolytic rate (fluorescent units over time), and this rate was subsequently plotted against compound inhibitor concentration. Resulting plots were fit to a standard 4-parameter IC50/IC90 equation to determine min/max values, IC50/90, and slope. All experimental steps were performed at room temperature.

Sequence of human activated kallikrein enzyme (P03952 391-638 limits assumed): as the sequence (P03952 391-638 limits assumed) above
Sequence of human activated kallikrein enzyme (P03952 20-390 partner limits assumed): as the sequence (P03952 20-390 partner limits assumed) above

Row | EC50 [1] [nM] | IC90 (plasma kallikrein) [nM] | SMILES
1 | ≤ 1 | 1500 to 10000 | CCN1CCN(c2cc(C3CC3)cn3cc(CNc4ccc5ccc([C@H]6C[C@@H]6c6nccc(C)n6)nc5c4)nc23)CC1 (racemic) [Example 74, rac-N-((6-cyclopropyl-8-(4-ethylpiperazin-1-yl)imidazo[1,2-a]pyridin-2-yl)methyl)-2-((1S*,2S*)-2-(4-methylpyrimidin-2-yl)cyclopropyl)quinolin-7-amine]
2 | ≤ 1 | 1500 to 10000 | Cc1ccnc([C@H]2C[C@@H]2C2=NS(=O)(=O)c3ccc(OCc4cn5cc(C6CC6)ccc5n4)cc3N2)n1 [Example 91, 6-((6-cyclopropylimidazo[1,2-a]pyridin-2-yl)methoxy)-3-((1S,2S)-2-(4-methylpyrimidin-2-yl)cyclopropyl)-4H-benzo[e][1,2,4]thiadiazine 1,1-dioxide]
3 | 1 to 10 | 1500 to 10000 | Cc1ccnc([C@H]2C[C@@H]2c2cc(N(C)S(C)(=O)=O)c3ccc(NCc4cn5cc(C6CC6)cc(N6CC(=O)N(C)C6=O)c5n4)cc3n2)n1 (racemic) [Example 34, rac-N-(7-(((6-cyclopropyl-8-(3-methyl-2,4-dioxoimidazolidin-1-yl)imidazo[1,2-a]pyridin-2-yl)methyl)amino)-2-((1S*,2S*)-2-(4-methylpyrimidin-2-yl)cyclopropyl)quinolin-4-yl)-N-methylmethanesulfonamide]
4 | ≤ 1 | 1500 to 10000 | Cc1ccnc([C@H]2C[C@@H]2c2ccc3ccc(NCc4cn5cc(C6CC6)cc(N6CC(=O)N(C7COC7)C6=O)c5n4)cc3n2)n1 (racemic) [Example 78, rac-1-(6-cyclopropyl-2-(((2-((1S*,2S*)-2-(4-methylpyrimidin-2-yl)cyclopropyl)quinolin-7-yl)amino)methyl)imidazo[1,2-a]pyridin-8-yl)-3-(oxetan-3-yl)imidazolidine-2,4-dione]
5 | ≤ 1 | 1500 to 10000 | COc1cc2ccc([C@H]3C[C@@H]3c3nccc(C)n3)nc2cc1NCc1cn2cc(C3CC3)cc(N3CC(=O)N(C)C3=O)c2n1 (racemic) [Example 84, rac-1-(6-cyclopropyl-2-(((6-methoxy-2-((1S*,2S*)-2-(4-methylpyrimidin-2-yl)cyclopropyl)quinolin-7-yl)amino)methyl)imidazo[1,2-a]pyridin-8-yl)-3-methylimidazolidine-2,4-dione]
6 | ≤ 1 | 1500 to 10000 | Cc1ccnc([C@H]2C[C@@H]2C2=CS(=O)(=O)c3ccc(NCc4cn5cc(C6CC6)ccc5n4)cc3N2)n1 (racemic) [Example 55, rac-6-(((6-cyclopropylimidazo[1,2-a]pyridin-2 yl)methyl)amino)-3-((1S*,2S*)-2-(4-methylpyrimidin-2-yl)cyclopropyl)-4H-benzo[b][1,4]thiazine 1,1-dioxide]
7 | ≤ 1 | 400 to 1500 | Cc1ccnc([C@H]2C[C@@H]2c2ccc3c(N(C)C)cc(NCc4cn5cc(C6CC6)cc(N6CC(=O)N(C)C6=O)c5n4)cc3n2)n1 (racemic) [Example 88, rac-1-(6-cyclopropyl-2-(((5-(dimethylamino)-2-((1S*,2S*)-2-(4-methylpyrimidin-2-yl)cyclopropyl)quinolin-7-yl)amino)methyl)imidazo[1,2-a]pyridin-8-yl)-3-methylimidazolidine-2,4-dione]
8 | ≤ 1 | 400 to 1500 | Cc1ccnc([C@H]2C[C@@H]2C2=NS(=O)(=O)c3ccc(NC(C)c4cn5cc(C6CC6)ccc5n4)cc3N2)n1 (stereo partly drawn) [Example 87, 6-((1-(6-cyclopropylimidazo[1,2-a]pyridin-2-yl)ethyl)amino)-3-((1S,2S)-2-(4-methylpyrimidin-2-yl)cyclopropyl)-4H-benzo[e][1,2,4]thiadiazine 1,1-dioxide]
9 | 1 to 10 | 1500 to 10000 | Cc1ccnc([C@H]2C[C@@H]2c2ccc3ncc(NCc4cn5cc(C6CC6)cc(N6CC(=O)N(C)C6=O)c5n4)cc3n2)n1 (racemic) [Example 14, rac-1-(6-cyclopropyl-2-(((6-((1S*,2S*)-2-(4-methylpyrimidin-2-yl)cyclopropyl)-1,5-naphthyridin-3-yl)amino)methyl)imidazo[1,2-a]pyridin-8-yl)-3-methylimidazolidine-2,4-dione]
10 | ≤ 1 | 1500 to 10000 | Cc1ccnc([C@H]2C[C@@H]2c2cc(CC#N)c3ccc(NCc4cn5cc(C6CC6)cc(N6CC(=O)N(C)C6=O)c5n4)cc3n2)n1 (racemic) [Example 85, rac-2-(7-(((6-cyclopropyl-8-(3-methyl-2,4-dioxoimidazolidin-1-yl)imidazo[1,2-a]pyridin-2-yl)methyl)amino)-2-((1S*,2S*)-2-(4-methylpyrimidin-2-yl)cyclopropyl)quinolin-4-yl)acetonitrile]
11 | ≤ 1 | ≤ 400 | CNc1cc([C@H]2C[C@@H]2c2nccc(C)n2)nc2cc(NCc3cn4cc(C5CC5)cc(N5CC(=O)N(C)C5=O)c4n3)ccc12 (racemic) [Example 32, rac-1-(6-cyclopropyl-2-(((4-(methylamino)-2-((1S*,2S*)-2-(4-methylpyrimidin-2-yl)cyclopropyl)quinolin-7-yl)amino)methyl)imidazo[1,2-a]pyridin-8-yl)-3-methylimidazolidine-2,4-dione]
12 | 1 to 10 | – | COc1cc([C@H]2C[C@@H]2c2nccc(C)n2)nc2cc(N3C[C@@H](O)C[C@@H]3c3cn4cc(C5CC5)ccc4n3)ccc12 (relative stereo) [Example 53, (3S,5R)-5-(6-cyclopropylimidazo[1,2-a]pyridin-2-yl)-1-(4-methoxy-2-(rac-(1S*,2S*)-2-(4-methylpyrimidin-2-yl)cyclopropyl)quinolin-7-yl)pyrrolidin-3-ol]
13 | > 6500 | – | Clc1cccc([C@H]2C[C@@H]2c2nc3ccc(NCc4cn5cc(C6CC6)ccc5n4)cc3[nH]2)c1 [Example 45, 2-((1S,2S)-2-(3-chlorophenyl)cyclopropyl)-N-((6-cyclopropylimidazo[1,2-a]pyridin-2-yl)methyl)-1H-benzo[d]imidazol-6-amine]
14 | 10 to 100 | – | O=c1[nH]c([C@H]2C[C@@H]2c2cccc(Cl)c2)nc2cc(NCc3cn4cc(C5CC5)ccc4n3)ncc12 [Example 2, 2-((1S,2S)-2-(3-chlorophenyl)cyclopropyl)-7-(((6-cyclopropylimidazo[1,2-a]pyridin-2-yl)methyl)amino)pyrido[4,3-d]pyrimidin-4 (3H)-one]
15 | 1 to 10 | – | Cc1ccnc([C@H]2C[C@@H]2c2nc3cc(NCc4cn5cc(C6CC6)ccc5n4)ccc3c(=O)[nH]2)n1 (relative stereo) [Example 3]
16 | > 6500 | – | Clc1cccc([C@H]2C[C@@H]2c2nc3ncncc3n2Cc2cn3cc(C4CC4)ccc3n2)c1 [Example 44, 8-((1S,2S)-2-(3-chlorophenyl)cyclopropyl)-7-((6-cyclopropylimidazo[1,2-a]pyridin-2-yl)methyl)-7H-purine]
17 | > 6500 | – | Clc1cccc([C@H]2C[C@@H]2c2nc3cccc(NCc4cn5cc(C6CC6)ccc5n4)c3[nH]2)c1 [Example 46, 2-((1S, 2S)-2-(3-chlorophenyl)cyclopropyl)-N-((6-cyclopropylimidazo[1,2-a]pyridin-2-yl)methyl)-1H-benzo[d]imidazol-7-amine]
18 | > 6500 | – | O[C@H]1C[C@H](c2cn3cc(C4CC4)ccc3n2)N(c2cc3[nH]c([C@H]4C[C@@H]4c4cccc(Cl)c4)c(F)c3cn2)C1 (relative stereo) [Example 56, rac-(3S,5R)-1-(2-((1S*,2S*)-2-(3-chlorophenyl)cyclopropyl)-3-fluoro-1H-pyrrolo[3,2-c]pyridin-6-yl)-5-(6-cyclopropylimidazo[1,2-a]pyridin-2-yl)pyrrolidin-3-ol]

Reference: patent US20240199613A1 (TAKEDA PHARMACEUTICAL COMPANY LIMITED, priority 2021, published 2024)
